The text below walks through data of patent publication US20230192691A1, “HETEROCYCLIC COMPOUNDS AS BTK INHIBITORS” (Beijing InnoCare Pharma Tech Co., Ltd., priority 2020, published 2023).

For experiment [1], the target named is T1, human recombinant BTK C481S protein (Homo sapiens, UniProt Q06187, C481S).
T1 construct: made in house
Kind of experiment: BTK C481S activity inhibition assay (HTRF in vitro kinase assay). It is filed as biochemical. The following applies: 35 μM ATP, 1.5 ng/μL BTK C481S. As to the method:
In vitro kinase assay was used to evaluate the effects of compounds of the present invention on BTK C481S activity (Table 1).
(§1) By using the homogeneous time-resolved fluorescence (HTRF) kinase detection kit (Cisbio, catalog number 62TK0PEC), the enzymatic activity of BTK C481S is determined by detecting the phosphorylation level of the substrate in the kinase reaction. The reaction buffer contains the enzyme reaction buffer (1×) from the kit, 5 mM MgCl2, 1 mM DTT, 10 nM SEB, and 0.01% Tween-20; the kinase reaction solution contains human recombinant BTK C481S protein (purified in-house) diluted to 1.5 ng/μL with the reaction buffer; the substrate reaction solution contains biotin-labeled tyrosine kinase substrate diluted to 0.5 μM with the reaction buffer and 35 μM ATP; the detection buffer contains Eu^3+-labeled cage antibody diluted to 0.05 ng/μL and streptavidin-labeled XL665 antibody diluted to 31.25 nM with the reaction buffer; the test compound is dissolved and diluted to 100 μM with DMSO, followed by a 4-fold serial dilution with DMSO to the lowest concentration of 6.1 nM and finally 40-time dilution with the reaction buffer for each concentration point. If the IC50 value of the compound is very low, the initial concentration of the compound is reduced.
(§2) Add 4 μL test compound solution and 2 μL kinase reaction solution to a 384-well detection plate (Corning, catalog number 3674), mix well and incubate at room temperature for 15 minutes; add 4 μL substrate reaction solution and incubate for 50 minutes; add 10 μL detection buffer, mix well and stand for 60 minutes; detect signal at 620 nm and 665 nm using an Envision plate reader (Perkin Elmer). The signal value (absorbance at 665 nm/absorbance at 620 nm) is positively correlated with the degree of phosphorylation of the substrate, thereby detecting the kinase activity of BTK C481S. In this experiment, the group without BTK is the negative control (100% inhibition) and the group with BTK C481 S but no compound is the positive control (0% inhibition). The inhibition curve is plotted and the corresponding IC50 value of the test compound is calculated using XLfit software (TD Business Solutions Ltd., UK).
On the technique in general: TR-FRET usually uses a lanthanide donor and a delayed reading to cut background.

The target of experiment [2] is T2, human-derived recombinant BTK protein (Homo sapiens, UniProt Q06187).
T2 construct: purchased Carna Biosciences 08-180
T2 sequence (Q06187 whole entry): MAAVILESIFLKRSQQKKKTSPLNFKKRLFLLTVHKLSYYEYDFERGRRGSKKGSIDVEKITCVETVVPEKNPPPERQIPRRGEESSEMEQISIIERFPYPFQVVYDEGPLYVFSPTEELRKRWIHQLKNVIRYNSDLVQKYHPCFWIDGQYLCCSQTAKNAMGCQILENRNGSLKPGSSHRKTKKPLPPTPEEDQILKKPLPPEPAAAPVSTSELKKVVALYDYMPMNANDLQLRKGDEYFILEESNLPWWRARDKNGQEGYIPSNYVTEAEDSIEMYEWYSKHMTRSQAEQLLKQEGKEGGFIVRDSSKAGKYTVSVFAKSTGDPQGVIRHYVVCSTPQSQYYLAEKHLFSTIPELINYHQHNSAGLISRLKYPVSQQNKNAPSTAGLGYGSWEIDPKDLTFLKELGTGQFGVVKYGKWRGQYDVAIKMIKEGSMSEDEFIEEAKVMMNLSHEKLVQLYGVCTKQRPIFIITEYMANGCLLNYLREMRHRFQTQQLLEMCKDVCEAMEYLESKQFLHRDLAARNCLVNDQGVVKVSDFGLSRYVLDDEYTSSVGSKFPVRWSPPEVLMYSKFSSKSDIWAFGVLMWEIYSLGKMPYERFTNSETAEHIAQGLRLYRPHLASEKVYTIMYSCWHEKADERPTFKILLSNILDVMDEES
Kind of experiment: BTK activity inhibition assay (HTRF in vitro kinase assay). It is filed as biochemical. The following applies: 40 μM ATP, 0.2 ng/μL BTK. As to the method: In vitro kinase assay was used to evaluate the effects of compounds of the present invention on BTK activity (Table 1).
as §1, with “BTK” for “BTK C481S”, “SEB” for “SEB,”, “human-derived” for “human”, “(Carna Biosciences, Catalog No. 08-180)” for “(purified in-house)”, “0.2” for “1.5”, “40” for “35”
as §2, with “BTK.” for “BTK C481S.”, “BTK” for “BTK C481 S”, “(ID” for “(TD”

T1 sequence (Q06187 whole entry C481S): as the sequence (Q06187 whole entry) above, with C481S counted along it

As usually defined, the IC50 is the point on the concentration scale where inhibition reaches its midpoint. Regarding `COc1ccc(F)cc1C(=O)NCc1ccc(-c2nn(C3CCC(CO)CC3)c3ccnc(N)c23)cc1` (stereo not drawn) [Compound 2, N-(4-(4-amino-1-(4-(hydroxymethyl)cyclohexyl)-1H-pyrazolo[4,3-c]pyridin-3-yl)benzyl)-5-fluoro-2-methoxybenzamide], the IC50 in experiment [1] was 2.5 nM; in experiment [2], 1.7 nM.

Take `COc1ccc(F)cc1C(=O)NCc1ccc(-c2nc([C@H]3CC[C@H](C(=O)O)CC3)n3ncnc(N)c23)cc1` [Compound 15, (1r,4r)-4-(4-amino-5-(4-((5-fluoro-2-methoxybenzamido)methyl)phenyl)imidazo[5,1-f][1,2,4]triazin-7-yl)cyclohexane-1-carboxylic acid]: the values for the IC50 in experiment [1] and in experiment [2] were 1.1 nM and 1.4 nM, respectively.

For `COc1ccc(F)cc1C(=O)NCc1ccc(-c2nc(N3CCOCC3)n3ccnc(N)c23)cc1` [Compound 44, N-(4-(8-amino-3-morpholinoimidazo[1,5-a]pyrazin-1-yl)benzyl)-5-fluoro-2-methoxybenzamide], the IC50 worked out at 7.1 nM in experiment [1] and 10 nM in experiment [2].

On to `COc1ccc(F)cc1C(=O)NCc1ccc(-c2nc(C(C)C(F)(F)F)n3ncnc(N)c23)cc1` (stereo not drawn) [Compound 26, N-(4-(4-amino-7-(1,1,1-trifluoropropan-2-yl)imidazo[5,1-f][1,2,4]triazin-5-yl)benzyl)-5-fluoro-2-methoxybenzamide], for which the IC50 in experiment [1] was determined as 11 nM; in experiment [2], 3.8 nM.

With `COc1ccc(F)cc1C(=O)NCc1ccc(-c2nc(C34CCC(CO)(CC3)CC4)n3ccnc(N)c23)cc1` [Compound 35, N-(4-(8-amino-3-(4-(hydroxymethyl)bicyclo[2.2.2]octan-1-yl)imidazo[1,5-a]pyrazin-1-yl)benzyl)-5-fluoro-2-methoxybenzamide], the IC50 stood at 1.5 nM in experiment [1] and 0.6 nM in experiment [2].

Regarding `COc1ccc(F)cc1C(=O)NCc1ccc(-c2nn([C@H]3CC[C@@H](O)CC3)c3ccnc(N)c23)cc1` [Compound 3, N-(4-(4-amino-1-((1s,4s)-4-hydroxycyclohexyl)-1H-pyrazolo[4,3-c]pyridin-3-yl)benzyl)-5-fluoro-2-methoxybenzamide], the IC50 in experiment [1] came to 4.6 nM; in experiment [2], 3.2 nM.

On to `COc1ccc(F)cc1C(=O)NCc1ccc(-n2c(=O)n(C34CCC(C(=O)N5CCOCC5)(CC3)CC4)c3ncnc(N)c32)cc1` [Compound 54, N-(4-(6-amino-9-(4-(morpholine-4-carbonyl)bicyclo[2.2.2]octan-1-yl)-8-oxo-8,9-dihydro-7H-purin-7-yl)benzyl)-5-fluoro-2-methoxybenzamide], for which the IC50 in experiment [1] was 6.1 nM; in experiment [2], 5.8 nM.

Turning to `COc1ccc(F)cc1C(=O)NCc1ccc(-c2nc(C3CCOC3)n3ncnc(N)c23)cc1` (stereo not drawn) [Compound 17, N-(4-(4-amino-7-(tetrahydrofuran-3-yl)imidazo[5,1-f][1,2,4]triazin-5-yl)benzyl)-5-fluoro-2-methoxybenzamide], the figures for the IC50 in experiment [1] and in experiment [2] were 2.4 nM and 6.3 nM, respectively.

Consider `COc1ccc(F)cc1C(=O)NCc1ccc(-n2c(=O)n(C34CCC(C(=O)O)(CC3)CC4)c3ncnc(N)c32)cc1` [Compound 48, 4-(6-amino-7-(4-((5-fluoro-2-methoxybenzamido)methyl)phenyl)-8-oxo-7,8-dihydro-9H-purin-9-yl)bicyclo[2.2.2]octane-1-carboxylic acid], for which the IC50 was 8.2 nM in experiment [1] and 1.2 nM in experiment [2].

In the case of `CNC(=O)C12CCC(c3nc(-c4ccc(CNC(=O)c5cc(F)ccc5OC)cc4)c4c(N)nccn34)(CC1)CC2` [Compound 36, 4-(8-amino-1-(4-((5-fluoro-2-methoxybenzamido)methyl)phenyl)imidazo[1,5-a]pyrazin-3-yl)-N-methylbicyclo[2.2.2]octane-1-carboxamide], the IC50 in experiment [1] was 3.4 nM; in experiment [2], 0.9 nM.

As to `COc1ccc(F)cc1C(=O)NCc1ccc(-c2nc(C3CCC(CO)OC3)n3ccnc(N)c23)cc1` (stereo not drawn) [Compound 8, N-(4-(8-amino-3-(6-(hydroxymethyl)tetrahydro-2H-pyran-3-yl)imidazo[1,5-a]pyrazin-1-yl)benzyl)-5-fluoro-2-methoxybenzamide], the IC50 was 0.8 nM in experiment [1] and 1.2 nM in experiment [2].

`COc1ccc(F)cc1C(=O)NCc1ccc(-c2nc([C@]3(C)CC[C@@](C)(C(=O)O)CC3)n3ccnc(N)c23)cc1` [Compound 32, (1r,4r)-4-(8-amino-1-(4-((5-fluoro-2-methoxybenzamido)methyl)phenyl)imidazo[1,5-a]pyrazin-3-yl)-1,4-dimethylcyclohexane-1-carboxylic acid]: the values for the IC50 in experiment [1] and in experiment [2] were 6.3 nM and 2.4 nM, respectively.

`COc1ccc(F)cc1C(=O)NCc1ccc(-c2nc([C@]3(C)CC[C@](C)(C(=O)O)CC3)n3ccnc(N)c23)cc1` [Compound 41, (1s,4s)-4-(8-amino-1-(4-((5-fluoro-2-methoxybenzamido)methyl)phenyl)imidazo[1,5-a]pyrazin-3-yl)-1,4-dimethylcyclohexane-1-carboxylic acid]: the IC50 came to 5.3 nM in experiment [1] and 2.6 nM in experiment [2].

`COc1ccc(F)cc1C(=O)NCc1ccc(-c2nc(C34CCC(C(=O)N5CCOCC5)(CC3)CC4)n3ccnc(N)c23)cc1` [Compound 37, N-(4-(8-amino-3-(4-(morpholine-4-carbonyl)bicyclo[2.2.2]octan-1-yl)imidazo[1,5-a]pyrazin-1-yl)benzyl)-5-fluoro-2-methoxybenzamide]: the IC50 in experiment [1] is 1.9 nM; in experiment [2], 1.3 nM.

In the case of `COc1ccc(F)cc1C(=O)NCc1ccc(-n2c(=O)n(C3CCOCC3)c3ccnc(N)c32)cc1` [Compound 52, N-(4-(4-amino-2-oxo-1-(tetrahydro-2H-pyran-4-yl)-1,2-dihydro-3H-imidazo[4,5-c]pyridin-3-yl)benzyl)-5-fluoro-2-methoxybenzamide], the IC50 in experiment [1] came out at 30 nM; in experiment [2] it was 7.2 nM.

In the case of `COc1ccc(F)cc1C(=O)NCc1ccc(-c2nc(C3(C(F)(F)F)CC3)n3ccnc(N)c23)cc1` [Compound 42, N-(4-(8-amino-3-(1-(trifluoromethyl)cyclopropyl)imidazo[1,5-a]pyrazin-1-yl)benzyl)-5-fluoro-2-methoxybenzamide], the IC50 in experiment [1] was 4.3 nM; in experiment [2], 1.7 nM.

For `COc1ccc(F)cc1C(=O)NCc1ccc(-c2nc([C@]3(C)CC[C@](C)(C(=O)O)CC3)n3ncnc(N)c23)cc1` [Compound 46, (1s,4s)-4-(4-amino-5-(4-((5-fluoro-2-methoxybenzamido)methyl)phenyl)imidazo[5,1-f][1,2,4]triazin-7-yl)-1,4-dimethylcyclohexane-1-carboxylic acid], the values for the IC50 in experiment [1] and in experiment [2] were 1.6 nM and 7.7 nM, respectively.

On to `COc1ccc(F)cc1C(=O)NCc1ccc(-c2nc([C@@H]3CCN(C(=O)C4CC4)C3)n3ncnc(N)c23)cc1` [Compound 24, (R)-N-(4-(4-amino-7-(1-(cyclopropanecarbonyl)pyrrolidin-3-yl)imidazo[5,1-f][1,2,4]triazin-5-yl)benzyl)-5-fluoro-2-methoxybenzamide], for which the results for the IC50 in experiment [1] and in experiment [2] were 2.5 nM and 3.9 nM, respectively.
